In ChEMBL document CHEMBL4619812, “Discovery of Potent and Orally Available Bicyclo[1.1.1]pentane-Derived Indoleamine-2,3-dioxygenase 1 (IDO1) Inhibitors” (ACS Med Chem Lett, 2020):

Legend:
[1] = Unbound intrinsic clearance in human hepatocytes; format: ADME, cell-based, Hepatocyte
[2] = Unbound intrinsic clearance in rat hepatocytes; format: ADME, cell-based, Hepatocyte
[3] = target: Tryptophan 2,3-dioxygenase (Homo sapiens, UniProt P48775); assay: Inhibition of TDO in human SW48 cells using L-tryptophan as substrate incubated for 48 hrs by fluorescent microplate reader assay; format: cell-based
Sequence of Tryptophan 2,3-dioxygenase (P48775 whole entry): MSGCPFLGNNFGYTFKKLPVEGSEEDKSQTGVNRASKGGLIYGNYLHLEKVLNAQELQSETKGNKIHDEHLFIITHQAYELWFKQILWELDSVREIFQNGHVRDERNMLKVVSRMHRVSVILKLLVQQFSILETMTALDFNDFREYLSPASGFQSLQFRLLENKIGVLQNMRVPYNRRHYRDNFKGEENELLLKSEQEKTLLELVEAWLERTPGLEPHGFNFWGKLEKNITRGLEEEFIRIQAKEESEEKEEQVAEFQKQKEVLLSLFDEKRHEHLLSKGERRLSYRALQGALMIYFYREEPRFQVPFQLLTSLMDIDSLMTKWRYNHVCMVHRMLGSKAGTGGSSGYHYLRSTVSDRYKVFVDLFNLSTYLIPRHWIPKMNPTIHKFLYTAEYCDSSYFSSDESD

[4] = Apparent permeability in MDCK2 cells; format: ADME, cell-based, Canis lupus familiaris, MDCK-II; conditions: dog, MDCK
[5] = Oral bioavailability in rat; format: ADME, organism-based; conditions: in vivo
[6] = Clearance in rat; format: ADME; conditions: in vivo
[7] = Unbound clearance in rat; format: ADME; conditions: in vivo
[8] = Elimination half life in rat; format: ADME; conditions: in vivo, read-out: beta t1/2 (converted)
[9] = Oral bioavailability in dog; format: ADME, organism-based, Canis lupus familiaris; conditions: in vivo
[10] = Elimination half life in dog; format: ADME, Canis lupus familiaris; conditions: in vivo, read-out: beta t1/2 (converted)
[11] = target: Indoleamine 2,3-dioxygenase 1 (Homo sapiens) (UniProt P14902); conditions: Blood
Sequence of Indoleamine 2,3-dioxygenase 1 (Homo sapiens) (P14902 whole entry, looked up): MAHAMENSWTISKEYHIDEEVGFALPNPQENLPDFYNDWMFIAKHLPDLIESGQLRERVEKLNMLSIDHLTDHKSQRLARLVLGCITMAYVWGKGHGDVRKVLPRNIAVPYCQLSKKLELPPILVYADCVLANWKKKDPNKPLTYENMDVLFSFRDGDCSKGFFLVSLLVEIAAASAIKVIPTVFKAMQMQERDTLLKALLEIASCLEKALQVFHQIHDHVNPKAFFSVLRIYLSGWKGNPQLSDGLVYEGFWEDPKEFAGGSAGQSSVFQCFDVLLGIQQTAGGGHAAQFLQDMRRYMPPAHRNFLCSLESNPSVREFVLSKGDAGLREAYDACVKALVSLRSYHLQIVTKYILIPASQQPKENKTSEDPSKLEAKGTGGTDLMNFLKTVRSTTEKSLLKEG
Description: Inhibition of IDO1 in human whole blood stimulated with IFNgamma/LPS using L-tryptophan/kynurenine as substrate incubated for 15 mins prior to IFNgamma/LPS stimulation and further incubated for 18 hrs followed by isotope labeled L-tryptophan/kynurenine addition on day 2 by LC/MS-MS analysis

[12] = Unbound clearance in dog; format: ADME, Canis lupus familiaris; conditions: in vivo
[13] = target: MDR1 (ABCB1, P-glycoprotein) (Homo sapiens, UniProt P08183); assay: Substrate activity at human MDR1 expressed in pig LLC-PK1 cells assessed as efflux ratio of permeability across basolateral to apical over apical to basolateral membrane at 1 mM after 3 hrs by LC/MS/MS analysis; set-up: dose or concentration left out as unconfirmed
Sequence of MDR1 (ABCB1, P-glycoprotein) (P08183 whole entry): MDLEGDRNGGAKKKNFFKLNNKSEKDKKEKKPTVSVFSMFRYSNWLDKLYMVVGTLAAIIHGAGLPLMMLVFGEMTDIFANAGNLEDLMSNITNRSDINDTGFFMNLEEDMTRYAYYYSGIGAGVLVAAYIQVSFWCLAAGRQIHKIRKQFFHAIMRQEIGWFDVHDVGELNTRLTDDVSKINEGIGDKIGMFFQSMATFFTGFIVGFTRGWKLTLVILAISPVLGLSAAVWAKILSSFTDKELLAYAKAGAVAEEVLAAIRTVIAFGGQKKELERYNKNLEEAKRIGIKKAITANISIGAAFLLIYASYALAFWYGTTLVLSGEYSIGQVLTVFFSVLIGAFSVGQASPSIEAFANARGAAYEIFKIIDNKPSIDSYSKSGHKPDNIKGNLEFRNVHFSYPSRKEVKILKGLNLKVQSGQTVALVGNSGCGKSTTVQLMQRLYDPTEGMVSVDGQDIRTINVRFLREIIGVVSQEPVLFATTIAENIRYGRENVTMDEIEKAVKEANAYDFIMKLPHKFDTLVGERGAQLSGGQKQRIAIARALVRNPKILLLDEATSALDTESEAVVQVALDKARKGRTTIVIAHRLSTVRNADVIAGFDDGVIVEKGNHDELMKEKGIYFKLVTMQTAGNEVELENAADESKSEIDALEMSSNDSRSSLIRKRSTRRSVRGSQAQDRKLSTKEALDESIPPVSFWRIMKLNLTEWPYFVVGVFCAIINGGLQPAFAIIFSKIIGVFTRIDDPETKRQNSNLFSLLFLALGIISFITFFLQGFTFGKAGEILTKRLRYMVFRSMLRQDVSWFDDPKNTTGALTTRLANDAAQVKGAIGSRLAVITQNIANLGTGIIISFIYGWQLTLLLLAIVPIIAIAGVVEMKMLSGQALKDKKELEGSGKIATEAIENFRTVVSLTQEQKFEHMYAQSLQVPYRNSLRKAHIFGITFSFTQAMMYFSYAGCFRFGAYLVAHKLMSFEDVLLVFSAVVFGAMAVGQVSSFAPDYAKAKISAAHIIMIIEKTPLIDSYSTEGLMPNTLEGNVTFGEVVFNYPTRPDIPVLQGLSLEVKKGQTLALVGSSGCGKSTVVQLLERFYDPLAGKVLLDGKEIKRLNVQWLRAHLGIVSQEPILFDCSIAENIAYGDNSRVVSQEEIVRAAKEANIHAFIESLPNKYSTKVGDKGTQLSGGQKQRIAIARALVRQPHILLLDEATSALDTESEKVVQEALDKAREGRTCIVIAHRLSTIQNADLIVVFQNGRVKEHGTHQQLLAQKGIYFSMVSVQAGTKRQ

CYP450 = CYP450 (Homo sapiens, UniProt P04798+P05177+P05181+P08684+P10632+P10635+P11509+P11712+P13584+P20813+P20815+P20853+P24462+P24903+P33260+P33261+P51589+P78329+P98187+Q02928+Q08477+Q16678+Q16696+Q5TCH4+Q6VVX0+Q7Z449+Q8TAV3+Q96SQ9+Q9HB55); assay: Inhibition of CYP450 (unknown origin); format: ADME, protein assay
CYP3A4 = CYP3A4 (Homo sapiens, UniProt P08684); assay: Inhibition of CYP3A4 (unknown origin) assessed as TDI shift ratio
Sequence of CYP3A4 (P08684 whole entry): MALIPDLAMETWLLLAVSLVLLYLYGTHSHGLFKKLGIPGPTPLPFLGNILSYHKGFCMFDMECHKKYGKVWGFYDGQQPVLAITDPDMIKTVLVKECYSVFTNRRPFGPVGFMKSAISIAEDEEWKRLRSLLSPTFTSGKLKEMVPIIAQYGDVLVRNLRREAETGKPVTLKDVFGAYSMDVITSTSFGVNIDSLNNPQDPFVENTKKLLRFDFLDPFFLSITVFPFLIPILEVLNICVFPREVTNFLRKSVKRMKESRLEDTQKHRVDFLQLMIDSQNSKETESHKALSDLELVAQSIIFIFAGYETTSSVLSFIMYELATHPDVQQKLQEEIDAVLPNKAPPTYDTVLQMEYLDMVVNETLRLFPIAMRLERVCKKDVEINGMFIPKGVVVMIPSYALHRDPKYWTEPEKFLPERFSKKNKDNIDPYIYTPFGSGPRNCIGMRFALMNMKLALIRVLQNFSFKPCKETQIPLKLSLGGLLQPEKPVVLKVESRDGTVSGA

[14] = target: T1, Nuclear receptor subfamily 1 group I member 2 (Homo sapiens, UniProt O75469); assay: Activation of PXR (unknown origin)
T1 sequence (O75469 whole entry): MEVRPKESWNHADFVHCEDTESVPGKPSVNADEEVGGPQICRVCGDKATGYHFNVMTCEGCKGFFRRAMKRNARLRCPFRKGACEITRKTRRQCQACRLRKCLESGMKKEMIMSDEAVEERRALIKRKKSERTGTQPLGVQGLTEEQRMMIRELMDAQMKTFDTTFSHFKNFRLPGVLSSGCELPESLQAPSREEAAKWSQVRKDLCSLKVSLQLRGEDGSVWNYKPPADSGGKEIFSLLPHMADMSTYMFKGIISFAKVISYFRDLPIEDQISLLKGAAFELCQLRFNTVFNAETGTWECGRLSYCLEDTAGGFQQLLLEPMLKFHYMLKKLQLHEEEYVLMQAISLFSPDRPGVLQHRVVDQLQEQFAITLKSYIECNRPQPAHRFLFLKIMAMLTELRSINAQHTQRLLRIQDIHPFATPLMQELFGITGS

[15] = Unbound intrinsic clearance in dog hepatocytes; format: ADME, cell-based, Canis lupus familiaris, Hepatocyte
[16] = Clearance in dog; format: ADME, Canis lupus familiaris; conditions: in vivo

| SMILES | CL free [1] | CL free [2] | further results |
| --- | --- | --- | --- |
| C[C@H](C(=O)Nc1ccc(F)cc1)C12CC(NC(=O)c3ccc(F)c(Cl)c3)(C1)C2 | 56 mL/min/kg | 295 mL/min/kg |  |
| C[C@H](C(=O)Nc1ccc(F)cc1)C12CC(NC(=O)c3cccc(Cl)c3)(C1)C2 | 48 mL/min/kg | 247 to 248 mL/min/kg | IC50 [3]: > 10 µM; Papp [4]: 32 ×10⁻⁶ cm/s; bioavailability [5]: 110%; clearance [6]: 5 mL/min/kg; CL free [7]: 194 mL/min/kg; half-life [8]: 3.7 h |
| C[C@H](C(=O)Nc1ccc(F)cc1)C12CC(NC(=O)c3cccc(Cl)c3F)(C1)C2 | 591 mL/min/kg | 765 mL/min/kg |  |
| C[C@H](C(=O)Nc1ccc(F)cc1)C12CC(NC(=O)OC3CCCC3)(C1)C2 | 2357 mL/min/kg | 4457 mL/min/kg |  |
| C[C@H](C(=O)Nc1ccc(F)cc1)C12CC(NC(=O)c3cc(F)cc(Cl)c3)(C1)C2 | 56 mL/min/kg | 441 mL/min/kg |  |
| O=C(Nc1ccc(C2(C(=O)Nc3ccc(F)cc3)CCC2)cc1)c1cccc(Cl)c1 |  | 1935 mL/min/kg | CL free [7]: 4371 mL/min/kg |
| CC(C)(C(=O)Nc1ccc(F)cc1)C12CC(NC(=O)c3cccc(Cl)c3)(C1)C2 | 51 mL/min/kg | 197 mL/min/kg |  |
| C[C@H](C(=O)Nc1ccc(Cl)cc1)C12CC(NC(=O)c3cccc(Cl)c3)(C1)C2 | 47 mL/min/kg | 150 mL/min/kg |  |
| C[C@H](C(=O)Nc1ccc(F)cc1)C12CC(Nc3ncnc4ccccc34)(C1)C2 | 1544 mL/min/kg | 1494 mL/min/kg |  |
| CC(C)OC(=O)NC12CC([C@H](C)C(=O)Nc3ccc(F)cc3)(C1)C2 | 369 mL/min/kg | 2925 mL/min/kg |  |
| C[C@H](C(=O)Nc1ccc(F)cc1)C12CC(NC(=O)c3cccc(Cl)n3)(C1)C2 | 82 mL/min/kg | 644 mL/min/kg |  |
| C[C@H](C(=O)Nc1ccc(Cl)nc1)C12CC(NC(=O)c3cccc(Cl)c3)(C1)C2 | 34 mL/min/kg | 133 mL/min/kg |  |
| C[C@H](C(=O)Nc1ccc(F)cc1)C12CC(NC(=O)c3ccc(F)c(F)c3)(C1)C2 | 52 mL/min/kg | 195 mL/min/kg | IC50 [3]: > 10 µM; Papp [4]: 29 ×10⁻⁶ cm/s; bioavailability [5]: 83%; bioavailability [9]: 79%; half-life [10]: 36 h; IC90 [11]: 0.912 µM; clearance [6]: 2 mL/min/kg; CL free [12]: 22 mL/min/kg; efflux ratio at 3 h [13]: 1.3; IC50 (CYP450): > 50 µM; IC50 shift (CYP3A4): 1; CL free [7]: 37 mL/min/kg; EC50 [14]: > 30 µM; CL free [15]: 121 mL/min/kg; half-life [8]: 11 h; clearance [16]: 1.1 mL/min/kg |
| C[C@H](C(=O)Nc1ccc(F)cc1)C12CC(Nc3ncnc4ccc(F)cc34)(C1)C2 | 723 mL/min/kg | 549 mL/min/kg |  |
